Experimental data as given in US20250270246A1, “LINCOSAMIDES AND USES THEREOF” (President and Fellows of Harvard College, priority 2022, published 2025).
Structures can show the parent of a compound that is named as a salt. Where two headings read alike, the source gives them in different places.

How the values were obtained:
Experiment in all cases: MIC by broth microdilution (CLSI)
Type in all cases: cell-based
[1] = tested on: A. baumannii ATCC 19606 (HAV#010); settings: HAV#010, ATCC 19606, CaMHB, 24 h incubation; for MIC: Acinetobacter baumannii, ATCC19606, 24 h, read-out: MIC A. baumannii ATCC 19606
Method: (§1) Minimum inhibitory concentrations (MICs) were determined by the broth microdilution method following the Clinical and Laboratory Standards Institute (CLSI) guidelines. Test organisms consisted of standard reference strains from the American Type Culture Collection (ATCC; Manassa, VA, USA) and clinical isolates obtained from JMI Laboratories Inc. (North Liberty, IA, USA), Micromyx repository (MMX; Kalamazoo, MI, USA), and Massachusetts Eye and Ear Hospital (Boston, USA). Before the start of the MIC experiment, standard and test compound stock solutions were prepared in dimethyl sulfoxide (DMSO, Aldrich D2650) at a stock concentration of 2,560 μg/mL. The compound concentration range typically employed for each experiment was 64-0.06 μg/mL (2.5% final DMSO concentration). Iboxamycin was used as a comparator in all experiments. All bacterial strains were sub-cultured on blood agar plates (tryptic soy agar with 5% sheep blood, Hardy Diagnostics) and incubated overnight at 35° C. Organisms were suspended in cation-adjusted Mueller-Hinton broth (CaMHB, BD 212322) and optical density was adjusted to 0.5 McFarland standard. Suspensions were further diluted to obtain a final inoculum of 5×10^5 CFU/mL for broth microdilution experiments. The minimum concentration of compound required to inhibit visible bacterial growth after 24 h of incubation was recorded as the MIC in μg/mL. MICs for P. aeruginosa were recorded in cation-adjusted Mueller-Hinton broth which had been pre-treated with Chelex 100 ion exchange resin according to procedures reported in Ito et al. Antimicrob Agents Chemother (2016) 60 (12), 7396-7401.

[2] = tested on: E. coli ATCC 25922 (HAV#006); settings: for MIC: Escherichia coli, ATCC25922, 24 h, read-out: MIC E. coli ATCC 25922
Method: as §1

[3] = tested on: E. coli lptD mutant; settings: CaMHB, 24 h incubation; for MIC: Escherichia coli, 24 h, read-out: MIC E. coli lptD mutant, lptD mutant / ΔlptD mutant
Method: as §1

[4] = tested on: E. faecalis ATCC 29212 (HAV#005); settings: for MIC: Enterococcus faecalis, ATCC29212, 24 h, read-out: MIC E. faecalis ATCC 29212
Method: as §1

[5] = tested on: E. faecium JMI-990536; settings: JMI-990536, CaMHB, 24 h incubation; for MIC: Enterococcus faecium, JMI990536, 24 h, read-out: MIC E. faecium JMI-990536
Method: as §1

[6] = tested on: K. pneumoniae JMI-991193; settings: Klebsiella pneumoniae, JMI991193, 24 h, read-out: MIC K. pneumoniae JMI-991193
Method: as §1

[7] = tested on: S. aureus ATCC 29213 (HAV#001); settings: for MIC: Staphylococcus aureus, ATCC29213, 24 h, read-out: MIC S. aureus ATCC 29213
Method: as §1

[8] = tested on: S. aureus Clinical (cfr); settings: for MIC: Staphylococcus aureus, 24 h, read-out: MIC S. aureus Clinical (cfr)
Method: as §1

[9] = tested on: S. aureus MMX 3035; settings: for MIC: Staphylococcus aureus, MMX3035, 24 h, read-out: MIC S. aureus MMX 3035
Method: as §1

[10] = tested on: E. coli ΔtolC; settings: CaMHB, 24 h incubation; for MIC: Escherichia coli, 24 h, read-out: MIC E. coli ΔtolC, ΔtolC
Method: as §1

[11] = HAV#006, ATCC 25922, CaMHB, 24 h incubation
[12] = HAV#005, ATCC 29212, CaMHB, 24 h incubation
[13] = JMI-991193, CaMHB, 24 h incubation
[14] = HAV#001, ATCC 29213, CaMHB, 24 h incubation
[15] = Clinical (cfr), CaMHB, 24 h incubation
[16] = MMX 3035, CaMHB, 24 h incubation

Row | SMILES | MIC [1] [µg/mL] | MIC [2, 11] [µg/mL] | MIC [3] [µg/mL] | MIC [4, 12] [µg/mL] | MIC [5] [µg/mL] | MIC [6, 13] [µg/mL] | MIC [7, 14] [µg/mL] | MIC [8, 15] [µg/mL] | MIC [9, 16] [µg/mL] | MIC [10] [µg/mL] | other results
1 | CC(C)C[C@@H]1CCO[C@@H]2[C@H](CN[C@@H]2C(=O)N[C@@H]2C/C=C/[C@@H](CO)CSC3O[C@H]2C(O)C(O)[C@H]3O)C1 (single isomer, unassigned) [FSA1608025A, formate salt] | > 64 | 32 | 8 | 4 | 8 | > 64 | 4 | 64 | 64 |  | 
2 | CC(C)C[C@@H]1CCO[C@@H]2[C@H](CN[C@@H]2C(=O)N[C@@H]2C/C=C/[C@H](CO)CSC3O[C@H]2C(O)C(O)[C@H]3O)C1 (single isomer, unassigned) [FSA1608025B, formate salt] | > 64 | > 64 | > 64 | 32 | 32 | > 64 | 32 | > 64 | > 64 | > 64 | 
3 | CC(C)C[C@@H]1CCO[C@@H]2[C@H](CN[C@@H]2C(=O)N[C@@H]2C(C)/C=C/CCCSC3OC2C(O)C(O)C3O)C1 (stereo in doubt) [FSA1609094, (4S,5aS,8S,8aR)-4-isobutyl-N-((1R,8S,9R,10R,11R,12S,13R,E)-11,12,13-trihydroxy-8-methyl-14-oxa-2-thiabicyclo[8.3.1]tetradec-6-en-9-yl) octahydro-2H-oxepino[2,3-c]pyrrole-8-carboxamide formate salt] |  |  |  |  |  | > 32 |  |  |  |  | MIC A. baumannii ATCC 19606 ([1]; formate salt): >32 µg/mL; MIC E. coli ATCC 25922 ([2]; HAV#006, ATCC 25922, CaMHB, 24 h incubation, formate salt): >32 µg/mL; MIC E. coli lptD mutant ([3]; lptD mutant / ΔlptD mutant, formate salt): 32 µg/mL; MIC E. coli ΔtolC ([10]; ΔtolC, formate salt): 32 µg/mL; MIC E. faecalis ATCC 29212 ([4]; HAV#005, ATCC 29212, CaMHB, 24 h incubation, formate salt): 2 µg/mL; MIC E. faecium JMI-990536 ([5]; formate salt): >32 µg/mL; MIC S. aureus ATCC 29213 ([7]; HAV#001, ATCC 29213, CaMHB, 24 h incubation, formate salt): 0.25 µg/mL; MIC S. aureus Clinical (cfr) ([8]; Clinical (cfr), CaMHB, 24 h incubation, formate salt): >32 µg/mL; MIC S. aureus MMX 3035 ([9]; MMX 3035, CaMHB, 24 h incubation, formate salt): >32 µg/mL
4 | CC(C)C[C@@H]1CCO[C@@H]2[C@H](CN[C@@H]2C(=O)N[C@@H]2C/C=C\C[C@@H](CN3CCCC3)S[C@H]3O[C@H]2[C@H](O)[C@H](O)[C@H]3O)C1 [FSA1606086, (4S,5aS,8S,8aR)-4-isobutyl-N-((1R,3S,8R,9R,10R,11S,12R,Z)-10,11,12-trihydroxy-3-(pyrrolidin-1-ylmethyl)-13-oxa-2-thiabicyclo[7.3.1]tridec-5-en-8-yl) octahydro-2H-oxepino[2,3-c]pyrrole-8-carboxamide formate salt] | > 64 | 64 | 4 | 16 | 16 | > 64 | 16 | > 64 | 64 | 2 | 
5 | CC(C)C[C@@H]1CCO[C@@H]2[C@H](CN[C@@H]2C(=O)N[C@@H]2C/C=C/[C@@H](O)CS[C@H]3O[C@H]2[C@H](O)[C@H](O)[C@H]3O)C1 [FSA1608016, (4S,5aS,8S,8aR)-4-isobutyl-N-((1R,4R,8R,9R,10R,11S,12R,E)-4,10,11,12-tetrahydroxy-13-oxa-2-thiabicyclo[7.3.1]tridec-5-en-8-yl) octahydro-2H-oxepino[2,3-c]pyrrole-8-carboxamide formate salt] | > 64 | 64 | 8 | 8 | 8 | > 64 | 8 | > 64 | > 64 |  | 
6 | CC(C)C[C@@H]1CCO[C@@H]2[C@H](CN[C@@H]2C(=O)N[C@@H]2C/C=C\[C@@H](CO)CS[C@H]3O[C@H]2[C@H](O)[C@H](O)[C@H]3O)C1 [FSA1608024, (4S,5aS,8S,8aR)-4-isobutyl-N-((1R,4S,8R,9R,10R,11S,12R,Z)-10,11,12-trihydroxy-4-(hydroxymethyl)-13-oxa-2-thiabicyclo[7.3.1]tridec-5-en-8-yl) octahydro-2H-oxepino[2,3-c]pyrrole-8-carboxamide formate salt] | > 64 | 16 | 4 | 2 | 2 | > 64 | 4 | 64 | 64 |  | 
7 | CC(C)C[C@@H]1CCO[C@@H]2[C@H](CN[C@@H]2C(=O)N[C@@H]2C/C=C\[C@@H](CN3CCOCC3)CS[C@H]3O[C@H]2[C@H](O)[C@H](O)[C@H]3O)C1 [FSA1608036, (4S,5aS,8S,8aR)-4-isobutyl-N-((1R,4S,8R,9R,10R,11S,12R,Z)-10,11,12-trihydroxy-4-(morpholinomethyl)-13-oxa-2-thiabicyclo[7.3.1]tridec-5-en-8-yl) octahydro-2H-oxepino[2,3-c]pyrrole-8-carboxamide formate salt] | 16 | 1 |  | 1 | 1 | 8 | 0.5 | 8 | 16 | 0.25 | 
8 | CC(C)C[C@@H]1CCO[C@@H]2[C@H](CN[C@@H]2C(=O)N[C@@H]2C/C=C\[C@@H](CN3CCCC3)CS[C@H]3O[C@H]2[C@H](O)[C@H](O)[C@H]3O)C1 [FSA1608037, (4S,5aS,8S,8aR)-4-isobutyl-N-((1R,4S,8R,9R,10R,11S,12R,Z)-10,11,12-trihydroxy-4-(pyrrolidin-1-ylmethyl)-13-oxa-2-thiabicyclo[7.3.1]tridec-5-en-8-yl) octahydro-2H-oxepino[2,3-c]pyrrole-8-carboxamide formate salt] | > 64 | > 64 | 4 | 16 | 16 | > 64 | 32 | > 64 | > 64 |  | 
9 | CC(C)C[C@@H]1CCO[C@@H]2[C@H](CN[C@@H]2C(=O)N[C@H]2[C@H]3O[C@H](S[C@H](c4cn(-c5ccc(F)cc5)nn4)C/C=C\[C@H]2C)[C@H](O)[C@@H](O)[C@H]3O)C1 [FSA1609037, (4S,5aS,8S,8aR)—N-((1R,3S,7R,8R,9R,10R,11S,12R,Z)-3-(1-(4-fluorophenyl)-1H-1,2,3-triazol-4-yl)-10,11,12-trihydroxy-7-methyl-13-oxa-2-thiabicyclo[7.3.1]tridec-5-en-8-yl)-4-isobutyloctahydro-2H-oxepino[2,3-c]pyrrole-8-carboxamide formate salt] |  |  | 0.5 |  |  |  |  |  |  | 0.5 | MIC [2]: 1 µg/mL; MIC [4]: 0.25 µg/mL; MIC [6]: 16 µg/mL; MIC [7]: 0.5 µg/mL; MIC [8]: 1 µg/mL; MIC [9]: 0.5 µg/mL
